Tests used:
Assay type in all cases: biochemical
[1] = target: T1, BRaf (Homo sapiens, UniProt P15056); assay: 33PanQinase enzyme assay, BRaf; settings: ratio IC50(BRaf)/IC50(MKK4)
T1 construct: purchased ProQinase GmbH, Freiburg, Germany (33PanQinase Assay Service)
T1 sequence (P15056 whole entry, species assumed): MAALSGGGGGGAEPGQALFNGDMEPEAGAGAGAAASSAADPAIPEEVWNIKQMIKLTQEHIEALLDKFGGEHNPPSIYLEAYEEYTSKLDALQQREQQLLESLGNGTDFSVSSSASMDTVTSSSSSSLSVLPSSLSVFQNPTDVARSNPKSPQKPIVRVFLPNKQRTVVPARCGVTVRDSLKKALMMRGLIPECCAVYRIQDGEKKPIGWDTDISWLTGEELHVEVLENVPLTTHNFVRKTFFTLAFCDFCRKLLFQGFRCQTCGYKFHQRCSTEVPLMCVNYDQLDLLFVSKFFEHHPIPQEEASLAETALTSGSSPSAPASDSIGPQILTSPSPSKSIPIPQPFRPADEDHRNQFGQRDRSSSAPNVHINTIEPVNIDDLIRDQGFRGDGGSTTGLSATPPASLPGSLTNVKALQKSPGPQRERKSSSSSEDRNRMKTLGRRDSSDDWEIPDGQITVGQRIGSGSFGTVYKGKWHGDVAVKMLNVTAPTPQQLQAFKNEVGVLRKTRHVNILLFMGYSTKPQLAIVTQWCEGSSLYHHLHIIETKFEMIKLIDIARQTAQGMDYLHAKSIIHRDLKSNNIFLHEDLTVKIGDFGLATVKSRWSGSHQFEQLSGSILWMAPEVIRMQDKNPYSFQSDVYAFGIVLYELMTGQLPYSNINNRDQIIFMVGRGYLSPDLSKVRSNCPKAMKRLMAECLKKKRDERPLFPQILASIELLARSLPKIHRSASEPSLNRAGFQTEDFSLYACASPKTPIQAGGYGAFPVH
Description: (§1) The kinase activities of the compounds of the invention were measured using the 33PanQinase® Assay Service provided by ProQinase GmbH, Freiburg, Germany. Details of the assay conditions are disclosed on the website of ProQinase (https://www.proginase.com/products-services-biochemical-assay-services/kinase-assays). In brief, all kinase assays were performed in 96-well FlashPlates™ from PerkinElmer (Boston, MA, USA) in a 50 μl reaction volume. The reaction cocktail was pipetted in four steps in the following order: • 20 μl of assay buffer (standard buffer) • 5 μl of ATP solution (in H2O) • 5 μl of test compound (in 10% DMSO) • 20 μl enzyme/subtrate mix
(§2) The reaction cocktails were incubated at 30° C. for 60 minutes. The reaction is stopped with 50 μl of 2% (v/v) H3PO4, plates were aspirated and washed two times with 200 μl 0.9% (w/v) NaCl. Incorporation of ^33Pi was determined with a microplate scintillation counter (Microbeta, Wallac).
(§3) All assays were performed with a BeckmanCoulter/SAGIAN™ Core System.
(§4) In case of single concentration assays, the potency of the test compound is expressed as % residual activity. […] The fitting method used was a least-squares fit.
(§5) Selectivity of test compounds against BRaf, JNK1 and MKK7, altogether denominated as off-targets was calculated by the ratio of IC50 (off-target)/IC50 (MKK4) and categorized as follows: […]

[2] = target: JNK1 (Homo sapiens, UniProt P45983); assay: 33PanQinase enzyme assay, JNK1; parameters: purchased ProQinase GmbH, Freiburg, Germany (33PanQinase Assay Service); settings: ratio IC50(JNK1)/IC50(MKK4)
Sequence of JNK1 (P45983 whole entry): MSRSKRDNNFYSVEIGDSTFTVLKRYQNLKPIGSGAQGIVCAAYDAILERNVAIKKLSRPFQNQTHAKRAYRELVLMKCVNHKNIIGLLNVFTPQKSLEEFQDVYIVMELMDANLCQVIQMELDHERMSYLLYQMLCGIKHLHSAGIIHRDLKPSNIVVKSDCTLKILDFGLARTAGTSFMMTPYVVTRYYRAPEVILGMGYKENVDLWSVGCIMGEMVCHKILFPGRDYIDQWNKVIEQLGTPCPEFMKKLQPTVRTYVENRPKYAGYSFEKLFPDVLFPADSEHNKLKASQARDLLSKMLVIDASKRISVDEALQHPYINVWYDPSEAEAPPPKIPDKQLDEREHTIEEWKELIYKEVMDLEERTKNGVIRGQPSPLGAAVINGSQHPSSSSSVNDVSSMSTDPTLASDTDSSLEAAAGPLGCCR
Description: as §1, §2, §3, §4, §5

[3] = target: T2, MKK7 (Homo sapiens, UniProt O14733); assay: 33PanQinase enzyme assay, MKK7; parameters: purchased ProQinase GmbH, Freiburg, Germany (33PanQinase Assay Service); settings: ratio IC50(MKK7)/IC50(MKK4)
T2 sequence (O14733 1-419): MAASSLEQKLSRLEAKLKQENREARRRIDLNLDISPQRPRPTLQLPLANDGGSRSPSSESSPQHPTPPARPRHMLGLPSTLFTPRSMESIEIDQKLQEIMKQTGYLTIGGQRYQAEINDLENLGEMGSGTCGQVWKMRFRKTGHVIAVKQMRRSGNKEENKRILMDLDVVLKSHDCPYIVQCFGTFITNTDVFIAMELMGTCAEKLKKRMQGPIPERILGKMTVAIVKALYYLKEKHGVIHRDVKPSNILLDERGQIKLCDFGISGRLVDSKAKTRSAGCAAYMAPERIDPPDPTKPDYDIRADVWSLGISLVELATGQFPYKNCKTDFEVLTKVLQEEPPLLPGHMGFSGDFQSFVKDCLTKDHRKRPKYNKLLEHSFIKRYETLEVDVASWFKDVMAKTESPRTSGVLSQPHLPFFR
Description: as §1, §2, §3, §4, §5

[4] = target: T3, MKK4 (Homo sapiens, UniProt P45985); assay: 33PanQinase enzyme assay, MKK4; settings: assay 'IC50'; for IC50: read-out: Potency MKK4 (IC50)
T3 construct: purchased ProQinase GmbH, Freiburg, Germany (33PanQinase Assay Service)
T3 sequence (P45985 1-399): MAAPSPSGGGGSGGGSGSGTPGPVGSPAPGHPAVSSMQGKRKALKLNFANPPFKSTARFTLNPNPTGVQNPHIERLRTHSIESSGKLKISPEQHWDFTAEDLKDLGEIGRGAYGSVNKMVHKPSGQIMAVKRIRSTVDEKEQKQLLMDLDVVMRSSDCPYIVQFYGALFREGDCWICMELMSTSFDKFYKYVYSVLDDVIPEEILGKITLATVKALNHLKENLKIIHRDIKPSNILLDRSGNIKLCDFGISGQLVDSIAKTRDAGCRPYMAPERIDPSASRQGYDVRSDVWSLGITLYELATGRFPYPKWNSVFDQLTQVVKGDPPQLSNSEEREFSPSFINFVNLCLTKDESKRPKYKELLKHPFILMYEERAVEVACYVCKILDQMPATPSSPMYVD
Description: as §1, §2, §3, §4
Inhibition potency against MKK4 is categorized as follows:
Assay at single concentration (100 nM):

Row | SMILES | Selectivity Braf, IC50(off-target)/IC50(MKK4) [1] | Selectivity IVIKK7, IC50(off-target)/IC50(MKK4) [3] | IC50 [4] [nM] | Potency MKK4 (IC50) [4] | Selectivity JNK1, IC50(off-target)/IC50(MKK4) [2]
1 | O=C(c1ccc(F)c(NS(=O)(=O)CCC(F)(F)F)c1F)c1c[nH]c2ncc(-c3ccc(Cl)cc3)cc12 [Example 150, N-(3-(5-(4-chlorophenyl)-1H-pyrrolo[2,3-b]pyridine-3-carbonyl)-2,6-difluorophenyl)-3,3,3-trifluoropropane-1-sulfonamide] | +++ (IC50(off-target)/IC50(MKK4) > 100) | +++ (IC50(off-target)/IC50(MKK4) > 100) | < 100 | – | +++ (IC50(off-target)/IC50(MKK4) > 100)
2 | CCCS(=O)(=O)Nc1c(F)ccc(C(=O)c2c[nH]c3ncc(-c4cnc(N5CCC5)nc4)cc23)c1F [Example 199, N-(3-(5-(2-(azetidin-1-yl)pyrimidin-5-yl)-1H-pyrrolo[2,3-b]pyridine-3-carbonyl)-2,6-difluorophenyl)propane-1-sulfonamide] | ++ (100 ≥ IC50(off-target)/IC50(MKK4) > 10) | +++ (IC50(off-target)/IC50(MKK4) > 100) | < 100 | – | ++ (100 ≥ IC50(off-target)/IC50(MKK4) > 10)
3 | CCCS(=O)(=O)Nc1ccc(F)c(C(=O)c2c[nH]c3ncc(-c4ccc(S(C)(=O)=O)cc4)cc23)c1F [Example 54] | ◯ (3 ≥ IC50(off-target)/IC50(MKK4)) | +++ (IC50(off-target)/IC50(MKK4) > 100) | 100 to 1000 | – | ◯ (3 ≥ IC50(off-target)/IC50(MKK4))
4 | CCCS(=O)(=O)Nc1ccc(F)c(C(=O)c2c[nH]c3ncc(-c4cncnc4)cc23)c1F [Example 91, N-(2,4-difluoro-3-(5-(pyrimidin-5-yl)-1H-pyrrolo[2,3-b]pyridine-3-carbonyl)phenyl)propane-1-sulfonamide] | ◯ (3 ≥ IC50(off-target)/IC50(MKK4)) | ++ (100 ≥ IC50(off-target)/IC50(MKK4) > 10) | 1000 to 10000 | – | ◯ (3 ≥ IC50(off-target)/IC50(MKK4))
5 | CCCS(=O)(=O)Nc1ccc(F)c(C(=O)c2c[nH]c3ncc(-c4ccc(P(C)(C)=O)cc4)cc23)c1F [Example 93, N-(3-(5-(4-(dimethylphosphoryl)phenyl)-1H-pyrrolo[2,3-b]pyridine-3-carbonyl)-2,4-difluorophenyl)propane-1-sulfonamide] | ◯ (3 ≥ IC50(off-target)/IC50(MKK4)) | +++ (IC50(off-target)/IC50(MKK4) > 100) | 100 to 1000 | – | ++ (100 ≥ IC50(off-target)/IC50(MKK4) > 10)
6 | CCCS(=O)(=O)Nc1c(F)ccc(C(=O)c2c[nH]c3ncc(C4CCC4)cc23)c1F [Example 239, N-(3-(5-cyclobutyl-1H-pyrrolo[2,3-b]pyridine-3-carbonyl)-2,6-difluorophenyl)propane-1-sulfonamide] | +++ (IC50(off-target)/IC50(MKK4) > 100) | +++ (IC50(off-target)/IC50(MKK4) > 100) | < 100 | – | ++ (100 ≥ IC50(off-target)/IC50(MKK4) > 10)
7 | CCCS(=O)(=O)Nc1ccc(F)c(C(=O)c2c[nH]c3ncc(-c4ccc5c(c4)C=C(C)N=S5(C)=O)cc23)c1F (stereo not shown) [Example 95, N-(3-(5-(1,3-dimethyl-1-oxido-1l4-benzo[e][1,2]thiazin-6-yl)-1H-pyrrolo[2,3-b]pyridine-3-carbonyl)-2,4-difluorophenyl)propane-1-sulfonamide] | ◯ (3 ≥ IC50(off-target)/IC50(MKK4)) | +++ (IC50(off-target)/IC50(MKK4) > 100) | 100 to 1000 | – | ◯ (3 ≥ IC50(off-target)/IC50(MKK4))
8 | CCCS(=O)(=O)Nc1c(F)ccc(C(=O)c2c[nH]c3ncc(-c4ccc(C)nc4C)cc23)c1F [Example 165, N-(3-(5-(2,6-dimethylpyridin-3-yl)-1H-pyrrolo[2,3-b]pyridine-3-carbonyl)-2,6-difluorophenyl)propane-1-sulfonamide] | +++ (IC50(off-target)/IC50(MKK4) > 100) | +++ (IC50(off-target)/IC50(MKK4) > 100) | < 100 | – | +++ (IC50(off-target)/IC50(MKK4) > 100)

Now from value to compound, other results behind:

Row | Selectivity Braf, IC50(off-target)/IC50(MKK4) [1] | Selectivity IVIKK7, IC50(off-target)/IC50(MKK4) [3] | IC50 [4] [nM] | Potency MKK4 (IC50) [4] | SMILES | Selectivity JNK1, IC50(off-target)/IC50(MKK4) [2]
9 | +++ (IC50(off-target)/IC50(MKK4) > 100) | +++ (IC50(off-target)/IC50(MKK4) > 100) | < 100 | – | CCCS(=O)(=O)Nc1c(F)ccc(C(=O)c2c[nH]c3ncc(-c4ccc(Cl)cc4C)cc23)c1F [Example 225, N-(3-(5-(4-chloro-2-methylphenyl)-1H-pyrrolo[2,3-b]pyridine-3-carbonyl)-2,6-difluorophenyl)propane-1-sulfonamide] | ++ (100 ≥ IC50(off-target)/IC50(MKK4) > 10)
10 | +++ (IC50(off-target)/IC50(MKK4) > 100) | +++ (IC50(off-target)/IC50(MKK4) > 100) | 100 to 1000 | – | CCCS(=O)(=O)Nc1c(F)ccc(C(=O)c2c[nH]c3ncc(-c4cnc(CF)nc4)cc23)c1F [Example 207, N-(2,6-difluoro-3-(5-(2-(fluoromethyl)pyrimidin-5-yl)-1H-pyrrolo[2,3-b]pyridine-3-carbonyl)phenyl)propane-1-sulfonamide] | ++ (100 ≥ IC50(off-target)/IC50(MKK4) > 10)
11 | +++ (IC50(off-target)/IC50(MKK4) > 100) | +++ (IC50(off-target)/IC50(MKK4) > 100) | – | ++·+ | CCCS(=O)(=O)Nc1c(F)ccc(C(=O)c2c[nH]c3ncc(-c4ccc(-c5nnn[nH]5)cc4)cc23)c1F [Example 219, N-(3-(5-(4-(1H-tetrazol-5-yl)phenyl)-1H-pyrrolo[2,3-b]pyridine-3-carbonyl)-2,6-difluorophenyl)propane-1-sulfonamide] | ++ (100 ≥ IC50(off-target)/IC50(MKK4) > 10)
12 | +++ (IC50(off-target)/IC50(MKK4) > 100) | +++ (IC50(off-target)/IC50(MKK4) > 100) | < 100 | – | CCCS(=O)(=O)Nc1c(F)ccc(C(=O)c2c[nH]c3ncc(-c4ccncc4Cl)cc23)c1F [Example 173, N-(3-(5-(3-chloropyridin-4-yl)-1H-pyrrolo[2,3-b]pyridine-3-carbonyl)-2,6-difluorophenyl)propane-1-sulfonamide] | ++ (100 ≥ IC50(off-target)/IC50(MKK4) > 10)
13 | +++ (IC50(off-target)/IC50(MKK4) > 100) | +++ (IC50(off-target)/IC50(MKK4) > 100) | – | +++· | CCCS(=O)(=O)Nc1c(F)ccc(C(=O)c2c[nH]c3ncc(-c4cnc(Cl)nc4)cc23)c1F [Example 237, N-(3-(5-(2-chloropyrimidin-5-yl)-1H-pyrrolo[2,3-b]pyridine-3-carbonyl)-2,6-difluorophenyl)propane-1-sulfonamide] | +++ (IC50(off-target)/IC50(MKK4) > 100)

Source: patent publication US11912701B2, “Protein kinase inhibitors for promoting liver regeneration or reducing or preventing hepatocyte death” (HEPAREGENIX GMBH, priority 2018, dated 2024)
